Earlier results, collected in patent publication US20070026026A1 (priority 2005, published 2007).

What was measured:
[1] = room temperature; cited from earlier work
cytochrome P450 2C9 = cytochrome P450 2C9 (Homo sapiens, UniProt P11712); details: in vitro studies; cited from earlier work
cytochrome P450 3A4 = cytochrome P450 3A4 (Homo sapiens, UniProt P08684); details: in vitro studies; cited from earlier work
[2] = cited from earlier work
AT1 receptor = target: T1, AT1 receptor (Homo sapiens, UniProt P30556); details: cited from earlier work
T1 sequence (P30556 1-359): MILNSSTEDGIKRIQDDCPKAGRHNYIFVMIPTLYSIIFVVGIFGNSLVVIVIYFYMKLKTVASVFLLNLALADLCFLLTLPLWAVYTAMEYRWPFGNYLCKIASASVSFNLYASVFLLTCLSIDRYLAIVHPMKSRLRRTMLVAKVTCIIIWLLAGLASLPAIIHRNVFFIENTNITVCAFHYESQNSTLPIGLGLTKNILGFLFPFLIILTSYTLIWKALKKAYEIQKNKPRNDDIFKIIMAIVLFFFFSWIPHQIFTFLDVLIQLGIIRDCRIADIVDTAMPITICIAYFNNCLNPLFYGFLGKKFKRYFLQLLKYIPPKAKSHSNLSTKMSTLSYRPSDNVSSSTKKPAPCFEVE

Sequence of cytochrome P450 2C9 (P11712 whole entry): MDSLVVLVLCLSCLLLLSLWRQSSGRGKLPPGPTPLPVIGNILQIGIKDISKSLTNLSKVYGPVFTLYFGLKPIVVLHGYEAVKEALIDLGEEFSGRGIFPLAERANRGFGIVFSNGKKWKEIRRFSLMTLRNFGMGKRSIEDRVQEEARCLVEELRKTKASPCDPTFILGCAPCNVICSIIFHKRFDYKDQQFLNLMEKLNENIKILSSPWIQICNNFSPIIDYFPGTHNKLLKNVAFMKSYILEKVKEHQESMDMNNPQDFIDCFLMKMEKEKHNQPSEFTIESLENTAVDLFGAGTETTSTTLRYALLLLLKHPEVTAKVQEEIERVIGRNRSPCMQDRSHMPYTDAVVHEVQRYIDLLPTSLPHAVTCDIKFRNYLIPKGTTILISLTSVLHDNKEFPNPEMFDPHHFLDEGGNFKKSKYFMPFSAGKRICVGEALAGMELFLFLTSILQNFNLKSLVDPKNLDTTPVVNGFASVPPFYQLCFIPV
Sequence of cytochrome P450 3A4 (P08684 whole entry): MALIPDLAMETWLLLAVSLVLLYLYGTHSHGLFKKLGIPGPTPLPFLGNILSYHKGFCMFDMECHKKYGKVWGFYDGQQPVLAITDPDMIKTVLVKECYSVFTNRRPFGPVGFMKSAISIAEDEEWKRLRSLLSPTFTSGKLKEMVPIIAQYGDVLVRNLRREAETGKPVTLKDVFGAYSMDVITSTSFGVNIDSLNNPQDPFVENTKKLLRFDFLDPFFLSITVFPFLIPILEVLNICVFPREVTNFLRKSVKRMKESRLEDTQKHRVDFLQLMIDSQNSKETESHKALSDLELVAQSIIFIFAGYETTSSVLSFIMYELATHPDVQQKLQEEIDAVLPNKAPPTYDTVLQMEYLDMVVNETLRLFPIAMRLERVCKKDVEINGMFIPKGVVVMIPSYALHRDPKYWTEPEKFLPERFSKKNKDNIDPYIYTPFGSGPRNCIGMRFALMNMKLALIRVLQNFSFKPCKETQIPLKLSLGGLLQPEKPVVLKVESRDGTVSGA

Row | SMILES | thermodynamic stability of the polymorph [1] | involvement in the biotransformation of losartan to its metabolites (cytochrome P450 2C9) | involvement in the biotransformation of losartan to its metabolites (cytochrome P450 3A4) | terminal half-life ([2]; in vivo) | maximum plasma concentrations of losartan and its active metabolite compared ([2]; oral administration) | systemic bioavailability ([2]; oral administration) | time to mean peak concentrations ([2]; oral administration) [h] | pharmacokinetics, dose dependence ([2]; oral losartan doses up to 200 mg) | effect of a meal on AUC (decrease) ([2]; with a meal) | effect of a meal on Cmax ([2]; with a meal) | effect of a meal on absorption ([2]; with a meal) | partial agonist activity at the AT1 receptor (AT1 receptor)
1 | CCCCc1nc(Cl)c(CO)n1Cc1ccc(-c2ccccc2-c2nnn[n-]2)cc1.[K+] [Form I] | more thermodynamically stable polymorph |  |  |  |  |  |  |  |  |  |  | 
2 | CCCCc1nc(Cl)c(CO)n1Cc1ccc(-c2ccccc2-c2nn[nH]n2)cc1 [losartan] |  | involved | involved | about 2 hours | approximately equal | approximately 33% | 1 | linear | about 10% | decreases | slows absorption | do not exhibit any partial agonist activity
